“And” between values parts separate entries of the source, which are not always exact repeats. Equal entries are not always repeated.
Test system: 945468-187-T-J2-PDC spheroids viability
Experiment: Anticancer human tumor 945468-187-T-J2-PDC patient-derived rectal carcinoma cell line growth inhibition [PI3K]
Conditions: spheroids with HUVEC and MSC; for viability, T/C: stronger effect = lower value
Outline: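 Targeted small molecules plus PI3K inhibitors, half-log dose series from Cmax (default top 10 microM), were applied to heterotypic spheroids of cancer cells with HUVEC and MSCs. Viability indicated growth inhibition.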

[1] = curve of first compound, second compound 0.00316 µM
[2] = curve of first compound, second compound 0.01 µM
[3] = curve of first compound, second compound 0.0316 µM
[4] = curve of first compound, second compound 0.1 µM
[5] = curve of first compound, second compound 0.316 µM
[6] = curve of first compound, second compound 1 µM
[7] = second compound 0.00316 µM, first compound 0.0316 µM
[8] = second compound 0.00316 µM, first compound 0.1 µM
[9] = second compound 0.00316 µM, first compound 0.316 µM
[10] = second compound 0.00316 µM, first compound 1 µM
[11] = second compound 0.00316 µM, first compound 3.16 µM
[12] = second compound 0.00316 µM, first compound 10 µM
[13] = second compound 0.01 µM, first compound 0.0316 µM
[14] = second compound 0.01 µM, first compound 0.1 µM
[15] = second compound 0.01 µM, first compound 0.316 µM
[16] = second compound 0.01 µM, first compound 1 µM
[17] = second compound 0.01 µM, first compound 3.16 µM
[18] = second compound 0.01 µM, first compound 10 µM
[19] = second compound 0.0316 µM, first compound 0.0316 µM
[20] = second compound 0.0316 µM, first compound 0.1 µM
[21] = second compound 0.0316 µM, first compound 0.316 µM
[22] = second compound 0.0316 µM, first compound 1 µM
[23] = second compound 0.0316 µM, first compound 3.16 µM
[24] = second compound 0.0316 µM, first compound 10 µM
[25] = second compound 0.1 µM, first compound 0.0316 µM
[26] = second compound 0.1 µM, first compound 0.1 µM
[27] = second compound 0.1 µM, first compound 0.316 µM
[28] = second compound 0.1 µM, first compound 1 µM
[29] = second compound 0.1 µM, first compound 3.16 µM
[30] = second compound 0.1 µM, first compound 10 µM
[31] = second compound 0.316 µM, first compound 0.0316 µM
[32] = second compound 0.316 µM, first compound 0.1 µM
[33] = second compound 0.316 µM, first compound 0.316 µM
[34] = second compound 0.316 µM, first compound 1 µM
[35] = second compound 0.316 µM, first compound 3.16 µM
[36] = second compound 0.316 µM, first compound 10 µM
[37] = second compound 1 µM, first compound 0.0316 µM
[38] = second compound 1 µM, first compound 0.1 µM
[39] = second compound 1 µM, first compound 0.316 µM
[40] = second compound 1 µM, first compound 1 µM
[41] = second compound 1 µM, first compound 3.16 µM
[42] = second compound 1 µM, first compound 10 µM
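Further: spheroids exposed to compounds for seven days before reading.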

Structure (SMILES): CCCS(=O)(=O)Nc1ccc(F)c(C(=O)c2c[nH]c3ncc(-c4ccc(Cl)cc4)cc23)c1F + CC(Nc1ccc2c(c1)OCCn1cc(N3C(=O)OCC3C(F)F)nc1-2)C(N)=O
- IC50 [1]: > 10 µM
- IC50 [2]: 4.28 µM
- IC50 [3]: 5.45 µM
- IC50 [4]: 6.98 µM
- IC50 [5]: 5.9 µM
- IC50 [6]: 5.88 µM
- viability, T/C [7]: 115%
- viability, T/C [8]: 115%
- viability, T/C [9]: 113%
- viability, T/C [10]: 97.1%
- viability, T/C [11]: 74.7%
- viability, T/C [12]: 53.6%
- viability, T/C [13]: 113%
- viability, T/C [14]: 115%
- viability, T/C [15]: 105%
- viability, T/C [16]: 77.1%
- viability, T/C [17]: 74.8%
- viability, T/C [18]: 7.68%
- viability, T/C [19]: 103%
- viability, T/C [20]: 98.8%
- viability, T/C [21]: 98.8%
- viability, T/C [22]: 92.1%
- viability, T/C [23]: 89.2%
- viability, T/C [24]: 6.32%
- viability, T/C [25]: 92.3%
- viability, T/C [26]: 109%
- viability, T/C [27]: 107%
- viability, T/C [28]: 92.8%
- viability, T/C [29]: 90.2%
- viability, T/C [30]: 32.3%
- viability, T/C [31]: 83.4%
- viability, T/C [32]: 88.8%
- viability, T/C [33]: 85.3%
- viability, T/C [34]: 85.8%
- viability, T/C [35]: 78.1%
- viability, T/C [36]: 26.1%
- viability, T/C [37]: 78.2%
- viability, T/C [38]: 81%
- viability, T/C [39]: 77.4%
- viability, T/C [40]: 87.9%
- viability, T/C [41]: 80.3%
- viability, T/C [42]: 24%

Structure (SMILES): CC1(C)CCC(CN2CCN(c3ccc(C(=O)NS(=O)(=O)c4ccc(NCC5CCOCC5)c([N+](=O)[O-])c4)c(Oc4cnc5[nH]ccc5c4)c3)CC2)=C(c2ccc(Cl)cc2)C1 + COc1c(OCCCN2CCOCC2)ccc2c3n(c(=NC(=O)c4cnc(N)nc4)nc12)CCN3
- IC50 [1]: > 10 µM
- IC50 [2]: > 10 µM
- IC50 [3]: > 10 µM
- IC50 [4]: > 10 µM
- IC50 [5]: < 0.0316 µM
- IC50 [6]: < 0.0316 µM
- viability, T/C [7]: 87.8%
- viability, T/C [8]: 87.4%
- viability, T/C [9]: 94.8%
- viability, T/C [10]: 110%
- viability, T/C [11]: 116%
- viability, T/C [12]: 74.1%
- viability, T/C [13]: 96.8%
- viability, T/C [14]: 100%
- viability, T/C [15]: 90.5%
- viability, T/C [16]: 89.6%
- viability, T/C [17]: 95.7%
- viability, T/C [18]: 90.3%
- viability, T/C [19]: 99.9%
- viability, T/C [20]: 103%
- viability, T/C [21]: 82.9%
- viability, T/C [22]: 115%
- viability, T/C [23]: 97%
- viability, T/C [24]: 105%
- viability, T/C [25]: 87.7%
- viability, T/C [26]: 75%
- viability, T/C [27]: 100%
- viability, T/C [28]: 90.5%
- viability, T/C [29]: 84.5%
- viability, T/C [30]: 81.6%
- viability, T/C [31]: 31.3%
- viability, T/C [32]: 36.7%
- viability, T/C [33]: 47.7%
- viability, T/C [34]: 38.6%
- viability, T/C [35]: 33%
- viability, T/C [36]: 36.7%
- viability, T/C [37]: 19.9%
- viability, T/C [38]: 21.4%
- viability, T/C [39]: 19.4%
- viability, T/C [40]: 19.9%
- viability, T/C [41]: 22.4%
- viability, T/C [42]: 22.6%

Structure (SMILES): Cn1ncc(Cl)c1-c1cc(C(=O)NC(CN)Cc2cccc(F)c2)sc1Cl (configuration not stated) + Cc1nc(NC(=O)N2CCCC2C(N)=O)sc1-c1ccnc(C(C)(C)C(F)(F)F)c1
- IC50 [3]: > 10 µM
- IC50 [4]: > 10 µM
- IC50 [5]: > 10 µM
- IC50 [6]: > 10 µM
- IC50 (curve of first compound, second compound 3.16 µM): > 10 µM
- IC50 (curve of first compound, second compound 10 µM): > 10 µM
- viability, T/C [19]: 94%
- viability, T/C [20]: 123%
- viability, T/C [21]: 104%
- viability, T/C [22]: 77.9%
- viability, T/C [23]: 89.8%
- viability, T/C [24]: 71.6%
- viability, T/C [25]: 116%
- viability, T/C [26]: 134%
- viability, T/C [27]: 104%
- viability, T/C [28]: 101%
- viability, T/C [29]: 72.3%
- viability, T/C [30]: 65.9%
- viability, T/C [31]: 102%
- viability, T/C [32]: 104%
- viability, T/C [33]: 124%
- viability, T/C [34]: 92.1%
- viability, T/C [35]: 72.3%
- viability, T/C [36]: 70.9%
- viability, T/C [37]: 97.4%
- viability, T/C [38]: 92.7%
- viability, T/C [39]: 97.4%
- viability, T/C [40]: 88.4%
- viability, T/C [41]: 77.9%
- viability, T/C [42]: 54.9%
- viability, T/C (second compound 3.16 µM, first compound 0.0316 µM): 86.7%
- viability, T/C (second compound 3.16 µM, first compound 0.1 µM): 87.7%
- viability, T/C (second compound 3.16 µM, first compound 0.316 µM): 88%
- viability, T/C (second compound 3.16 µM, first compound 1 µM): 75.1%
- viability, T/C (second compound 3.16 µM, first compound 3.16 µM): 72.5%
- viability, T/C (second compound 3.16 µM, first compound 10 µM): 60%
- viability, T/C (second compound 10 µM, first compound 0.0316 µM): 85.9%
- viability, T/C (second compound 10 µM, first compound 0.1 µM): 79.8%
- viability, T/C (second compound 10 µM, first compound 0.316 µM): 92.5%
- viability, T/C (second compound 10 µM, first compound 1 µM): 89%
- viability, T/C (second compound 10 µM, first compound 3.16 µM): 59.5%
- viability, T/C (second compound 10 µM, first compound 10 µM): 56.6%

Structure (SMILES): Cn1nccc1Nc1nccc(-c2ccn(C(CO)c3ccc(Cl)c(F)c3)c(=O)c2)n1 (configuration not stated)
- viability, T/C (compound 0.1 µM): 101% [middle of 4 runs]
- viability, T/C (compound 0.316 µM): 101% (2×) and 108% and 94.5%
- viability, T/C (compound 3.16 µM): 94.1% [middle of 4 runs]
- viability, T/C (compound 10 µM): 78.3% [middle of 4 runs]
- IC50 (curve of compound): > 10 µM

Structure (SMILES): Cn1ncc(Cl)c1-c1cc(C(=O)NC(CN)Cc2cccc(F)c2)sc1Cl (configuration not stated) + CC(Nc1ccc2c(c1)OCCn1cc(N3C(=O)OCC3C(F)F)nc1-2)C(N)=O
- IC50 [1]: > 10 µM
- IC50 [2]: > 10 µM
- IC50 [3]: > 10 µM
- IC50 [4]: > 10 µM
- IC50 [5]: > 10 µM
- IC50 [6]: > 10 µM
- viability, T/C [7]: 82%
- viability, T/C [8]: 76.6%
- viability, T/C [9]: 66.5%
- viability, T/C [10]: 70%
- viability, T/C [11]: 58.5%
- viability, T/C [12]: 73.8%
- viability, T/C [13]: 80.1%
- viability, T/C [14]: 75.4%
- viability, T/C [15]: 95.7%
- viability, T/C [16]: 75.8%
- viability, T/C [17]: 66.7%
- viability, T/C [18]: 95.7%
- viability, T/C [19]: 99.8%
- viability, T/C [20]: 88.3%
- viability, T/C [21]: 95.9%
- viability, T/C [22]: 71.6%
- viability, T/C [23]: 62.3%
- viability, T/C [24]: 96%
- viability, T/C [25]: 93.2%
- viability, T/C [26]: 86.1%
- viability, T/C [27]: 78.4%
- viability, T/C [28]: 71.8%
- viability, T/C [29]: 62.2%
- viability, T/C [30]: 81.5%
- viability, T/C [31]: 70.6%
- viability, T/C [32]: 79.5%
- viability, T/C [33]: 77.1%
- viability, T/C [34]: 83.9%
- viability, T/C [35]: 63.6%
- viability, T/C [36]: 65.4%
- viability, T/C [37]: 70.3%
- viability, T/C [38]: 56.6%
- viability, T/C [39]: 68.5%
- viability, T/C [40]: 74%
- viability, T/C [41]: 39.6%
- viability, T/C [42]: 66.4%

Structure (SMILES): Cn1ncc(Cl)c1-c1cc(C(=O)NC(CN)Cc2cccc(F)c2)sc1Cl (configuration not stated)
- viability, T/C (compound 0.1 µM): 90.9% [middle of 4 runs]
- viability, T/C (compound 1 µM): 84.6% [middle of 4 runs]
- viability, T/C (compound 3.16 µM): 76.5% [middle of 4 runs]
- IC50 (curve of compound): > 10 µM

— PubChem BioAssay AID1963972 (Molecular Pharmacology Branch, DTP, NCI, 2024)
